Laboratory results from patent US9458172B2, “Pyridinyl and pyrimidinyl sulfoxide and sulfone derivatives” (priority 2012, dated 2016).
Like-named read-outs stand apart in the source and are kept apart here.

Experiments:
A2780 cells = test: In-Vitro Cell Proliferation Assay (SRB); conditions: Homo sapiens, A2780, 72 h
Method: Assay 2: In-Vitro Cell Proliferation Assay
Assay Method. […] The compounds were then further diluted to 10 OX final concentration in culture media, whereupon 20 μL of each dilution was added to the plated cells with controls (e.g. DMSO and blank) to make a final volume of 200 μL. The final DMSO concentration in each well was 0.1%. The plates were then incubated for 72 h at 37° C. in a 5% CO2 incubator. The number of viable cells was then assessed using sulforhodamine B (SRB) assay. Cells were fixed at 4° C. for 1 h with the addition of 50 μL 30% trichloroacetic acid (TCA) to make a final concentration of 6% TCA. The plates were washed four times with H2O and allowed to dry for at least 1 h, whereupon 100 μL of a 4% SRB in 1% acetic acid solution was added to each well and incubated at rt for at least 30 min. The plates were then washed three times with 1% acetic acid, dried, and treated with 100 μL of 10 mM Tris-Base solution. The plates were then read in a microplate reader at an absorbance of 570 nm. Background was generated on a separate plate with media only.
Determination of IC50 Values. First, the signals from the background plate were averaged, then the background was subtracted from the test plates.
The specificity of the compounds were determined via cell viability assay in the presence of the compound and either NAM or NMN Percent inhibitions were determined using the method given above.

NAMPT = NAMPT (Homo sapiens (Human), UniProt P43490); test: Biochemical Inhibition Assay (NAMPT enzymatic reaction, NMN quantified by mass spectrometry); conditions: 33 nM recombinant His-tagged NAMPT, 1 μM NAM, 30 min at rt
Sequence of NAMPT (P43490 whole entry): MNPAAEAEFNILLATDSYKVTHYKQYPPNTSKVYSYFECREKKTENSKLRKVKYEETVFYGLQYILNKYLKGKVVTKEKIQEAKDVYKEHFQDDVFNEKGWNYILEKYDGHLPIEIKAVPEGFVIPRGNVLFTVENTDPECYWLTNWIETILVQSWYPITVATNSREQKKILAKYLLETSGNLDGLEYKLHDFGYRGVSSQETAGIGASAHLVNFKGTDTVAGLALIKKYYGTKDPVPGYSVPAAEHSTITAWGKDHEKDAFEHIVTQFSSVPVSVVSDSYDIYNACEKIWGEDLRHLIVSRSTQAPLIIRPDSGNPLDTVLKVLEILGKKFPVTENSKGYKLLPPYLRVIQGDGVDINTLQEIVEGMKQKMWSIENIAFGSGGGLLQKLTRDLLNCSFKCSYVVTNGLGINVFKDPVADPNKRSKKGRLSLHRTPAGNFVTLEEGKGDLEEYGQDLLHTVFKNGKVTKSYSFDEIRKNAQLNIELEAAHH
How it was run: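 His-tagged human NAMPT from E. coli preincubated 15 min at rt with compound in 50 mM Hepes pH 7.5, 50 mM NaCl, 5 mM MgCl2, 1 mM THP, then reacted 30 min at rt with 1 μM NAM, […] PRPP, 2.5 mM ATP. NMN quantified by RapidFire mass spectrometry, normalized to L-Cystathionine, background subtracted.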

[1] = read-out: Cell Proliferation (IC50)
[2] = read-out: Cell Proliferation (IC50), A2780 cells, 72 h, sulforhodamine B

CCN(C)c1ncc(S(=O)(=O)c2ccc(CNC(=O)N3Cc4ccncc4C3)nc2)s1 [Example 147, N-[[5-[2-[ethyl(methyl)amino]thiazol-5-yl]sulfonyl-2-pyridyl]methyl]-1,3-dihydropyrrolo[3,4-c]pyridine-2-carboxamide]
IC50 (A2780 cells; [1]): 5.97 nM | IC50 (NAMPT): 6.83 nM

O=C(NCc1ccc(S(=O)(=O)N2CCC(N3CCCC3)CC2)cn1)N1Cc2ccncc2C1 [Example 148, N-[[5-[(4-pyrrolidin-1-yl-1-piperidyl)sulfonyl]-2-pyridyl]methyl]-1,3-dihydropyrrolo[3,4-c]pyridine-2-carboxamide]
IC50 (A2780 cells; [1]): 85.2 nM | IC50 (NAMPT): 75.7 nM

O=C(NCc1ccc(S(=O)(=O)N2CCC(N3CCCC3)CC2)cn1)c1cnc2[nH]ncc2c1 [Example 149, N-[[5-[(4-pyrrolidin-1-yl-1-piperidyl)sulfonyl]-2-pyridyl]methyl]-1H-pyrazolo[3,4-b]pyridine-5-carboxamide]
IC50 (A2780 cells; [2]): 1860 nM | IC50 (NAMPT): 619 nM

Nc1ccc(S(=O)(=O)c2ccc(CNC(=O)N3Cc4ccncc4C3)nc2)cn1 [Example 150, N-[[5-[(6-amino-3-pyridyl)sulfonyl]-2-pyridyl]methyl]-1,3-dihydropyrrolo[3,4-c]pyridine-2-carboxamide]
IC50 (A2780 cells; [1]): 678 nM | IC50 (NAMPT): 99.2 nM

N#Cc1cccc(S(=O)(=O)c2ccc(CNC(=O)c3cc4ccncc4o3)nc2)c1 [Example 151, N-[[5-(3-cyanophenyl)sulfonyl-2-pyridyl]methyl]furo[2,3-c]pyridine-2-carboxamide]
IC50 (A2780 cells; [1]): 54.6 nM | IC50 (NAMPT): 55.2 nM

O=C(NCc1ccc(S(=O)(=O)C2CCN(CC(F)(F)F)CC2)cn1)c1ccc2nccn2c1 [Example 152, N-[[5-[[1-(2,2,2-trifluoroethyl)-4-piperidyl]sulfonyl]-2-pyridyl]methyl]imidazo[1,2-a]pyridine-6-carboxamide]
IC50 (A2780 cells; [1]): 106 nM | IC50 (NAMPT): 247 nM

O=C(NCc1ccc(S(=O)(=O)C2CCN(CC(F)(F)F)CC2)cn1)c1cnc2[nH]ncc2c1 [Example 153, N-[[5-[[1-(2,2,2-trifluoroethyl)-4-piperidyl]sulfonyl]-2-pyridyl]methyl]-1H-pyrazolo[3,4-b]pyridine-5-carboxamide]
IC50 (A2780 cells; [1]): 1340 nM | IC50 (NAMPT): 1740 nM

O=C(NCc1ccc(S(=O)(=O)c2cccc(N3CCOCC3)c2)cn1)c1ccc2nccn2c1 [Example 154, N-[[5-(3-morpholinophenyl)sulfonyl-2-pyridyl]methyl]imidazo[1,2-a]pyridine-6-carboxamide]
IC50 (A2780 cells; [1]): 46.5 nM | IC50 (NAMPT): 39.8 nM

N#Cc1cccc(S(=O)(=O)c2ccc(CNC(=O)c3ccc4nccn4c3)nc2)c1 [Example 155, N-[[5-(3-cyanophenyl)sulfonyl-2-pyridyl]methyl]imidazo[1,2-a]pyridine-6-carboxamide]
IC50 (A2780 cells; [1]): 89.7 nM | IC50 (NAMPT): 74 nM

N#Cc1cccc(S(=O)(=O)c2ccc(CNC(=O)c3cnc4[nH]ncc4c3)nc2)c1 [Example 156, N-[[5-(3-cyanophenyl)sulfonyl-2-pyridyl]methyl]-1H-pyrazolo[3,4-b]pyridine-5-carboxamide]
IC50 (A2780 cells; [1]): 940 nM | IC50 (NAMPT): 452 nM

O=C(NCc1ccc(S(=O)(=O)c2cccc(N3CCOCC3)c2)cn1)c1cnc2[nH]ncc2c1 [Example 157, N-[[5-(3-morpholinophenyl)sulfonyl-2-pyridyl]methyl]-1H-pyrazolo[3,4-b]pyridine-5-carboxamide]
IC50 (A2780 cells; [1]): 217 nM | IC50 (NAMPT): 290 nM

N#Cc1cccc(S(=O)(=O)c2ccc(CNC(=O)N3Cc4ccncc4C3)nc2)c1 [Example 158, N-[[5-(3-cyanophenyl)sulfonyl-2-pyridyl]methyl]-1,3-dihydropyrrolo[3,4-c]pyridine-2-carboxamide]
IC50 (A2780 cells; [1]): 2000 nM | IC50 (NAMPT): 156 nM

O=C(NCc1ccc(S(=O)(=O)C2CCN(C3CCOCC3)CC2)cn1)c1ccc2nccn2c1 [Example 161, N-[[5-[(1-tetrahydropyran-4-yl-4-piperidyl)sulfonyl]-2-pyridyl]methyl]imidazo[1,2-a]pyridine-6-carboxamide]
IC50 (A2780 cells; [1]): 52.8 nM | IC50 (NAMPT): 253 nM

O=C(NCc1ccc(S(=O)(=O)C2CCN(C3CCOCC3)CC2)cn1)c1cnc2[nH]ncc2c1 [Example 162, N-[[5-[(1-tetrahydropyran-4-yl-4-piperidyl)sulfonyl]-2-pyridyl]methyl]-1H-pyrazolo[3,4-b]pyridine-5-carboxamide]
IC50 (A2780 cells; [1]): 295 nM | IC50 (NAMPT): 1830 nM

O=C(NCc1ccc(S(=O)(=O)c2cncc(C(F)(F)F)c2)cn1)c1cc2ccncc2o1 [Example 163, N-[[5-[[5-(trifluoromethyl)-3-pyridyl]sulfonyl]-2-pyridyl]methyl]furo[2,3-c]pyridine-2-carboxamide]
IC50 (A2780 cells; [1]): 25.3 nM | IC50 (NAMPT): 49.5 nM

O=C(NCc1ccc(S(=O)(=O)c2cncc(Cl)c2)cn1)c1cnc2[nH]ncc2c1 [Example 164, N-[[5-[(5-chloro-3-pyridyl)sulfonyl]-2-pyridyl]methyl]-1H-pyrazolo[3,4-b]pyridine-5-carboxamide]
IC50 (A2780 cells; [1]): 49.4 nM | IC50 (NAMPT): 143 nM

O=C(NCc1ccc(S(=O)(=O)c2cncc(C(F)(F)F)c2)cn1)c1cnc2[nH]ncc2c1 [Example 165, N-[[5-[[5-(trifluoromethyl)-3-pyridyl]sulfonyl]-2-pyridyl]methyl]-1H-pyrazolo[3,4-b]pyridine-5-carboxamide]
IC50 (A2780 cells; [1]): 64.4 nM | IC50 (NAMPT): 217 nM

O=C(NCc1ccc(S(=O)(=O)C2CCN(CC(F)(F)F)CC2)cn1)c1cc2cnccc2[nH]1 [Example 166, N-[[5-[[1-(2,2,2-trifluoroethyl)-4-piperidyl]sulfonyl)-2-pyridyl]methyl]-1H-pyrrolo[3,2-c]pyridine-2-carboxamide]
IC50 (A2780 cells; [1]): 91 nM | IC50 (NAMPT): 224 nM

O=C(NCc1ccc(S(=O)(=O)c2cnc(N3CCOCC3)nc2)cn1)c1ccc2nccn2c1 [Example 167, N-[[5-(2-morpholinopyrimidin-5-yl)sulfonyl-2-pyridyl]methyl]imidazo[1,2-a]pyridine-6-carboxamide]
IC50 (A2780 cells; [1]): 6.7 nM | IC50 (NAMPT): 23 nM

O=C(NCc1ccc(S(=O)(=O)c2cncc(C(F)(F)F)c2)cn1)c1ccc2nccn2c1 [Example 168, N-[[5-[[5-(trifluoromethyl)-3-pyridyl]sulfonyl]-2-pyridyl]methyl]imidazo[1,2-a]pyridine-6-carboxamide]
IC50 (A2780 cells; [1]): 14.9 nM | IC50 (NAMPT): 60.8 nM

O=C(NCc1ccc(S(=O)(=O)c2cncc(Cl)c2)cn1)c1cc2ccncc2o1 [Example 169, N-[[5-[(5-chloro-3-pyridyl)sulfonyl]-2-pyridyl]methyl]furo[2,3-c]pyridine-2-carboxamide]
IC50 (A2780 cells; [1]): 26.9 nM | IC50 (NAMPT): 66.4 nM

O=C(NCc1ccc(S(=O)(=O)c2cncc(C(F)(F)F)c2)cn1)N1Cc2ccncc2C1 [Example 170, N-[[5-[[5-(trifluoromethyl)-3-pyridyl]sulfonyl]-2-pyridyl]methyl]-1,3-dihydropyrrolo[3,4-c]pyridine-2-carboxamide]
IC50 (A2780 cells; [1]): 25.4 nM | IC50 (NAMPT): 49.1 nM

CCCn1cc(S(=O)(=O)c2ccc(CNC(=O)c3cc4cnccc4[nH]3)nc2)cn1 [Example 171, N-[[5-(1-propylpyrazol-4-yl)sulfonyl-2-pyridyl]methyl]-1H-pyrrolo[3,2-c]pyridine-2-carboxamide]
IC50 (A2780 cells; [2]): 51.2 nM | IC50 (NAMPT): 62 nM

CC(C)CN1CCC([S+]([O-])c2ccc(CNC(=O)c3ccc4nccn4c3)nc2)CC1 (stereo not shown) [Example 172, N-[[5-[(1-isobutyl-4-piperidyl)sulfinyl]-2-pyridyl]methyl]imidazo[1,2-a]pyridine-6-carboxamide]
IC50 (A2780 cells; [1]): 106 nM | IC50 (NAMPT): 249 nM

O=C(NCc1ccc([S+]([O-])C2CCN(CC(F)(F)F)CC2)cn1)c1ccc2nccn2c1 (stereo not shown) [Example 173, N-[[5-[[1-(2,2,2-trifluoroethyl)-4-piperidyl]sulfinyl]-2-pyridyl]methyl]imidazo[1,2-a]pyridine-6-carboxamide]
IC50 (A2780 cells; [1]): 63.1 nM | IC50 (NAMPT): 202 nM

N#Cc1cncc(S(=O)(=O)c2ccc(CNC(=O)c3cc4ccncc4o3)nc2)c1 [Example 174, N-[[5-[(5-cyano-3-pyridyl)sulfonyl]-2-pyridyl]methyl]furo[2,3-c]pyridine-2-carboxamide]
IC50 (A2780 cells; [1]): 116 nM | IC50 (NAMPT): 217 nM

CCn1cc(S(=O)(=O)c2ccc(CNC(=O)N3Cc4ccncc4C3)nc2)cn1 [Example 177, N-[[5-(1-ethylpyrazol-4-yl)sulfonyl-2-pyridyl]methyl]-1,3-dihydropyrrolo[3,4-c]pyridine-2-carboxamide]
IC50 (A2780 cells; [2]): 264 nM | IC50 (NAMPT): 32 nM

O=C(NCc1ccc(S(=O)(=O)c2ccccc2)cn1)N1Cc2cn[nH]c2C1 [Example 178, N-[[5-(benzenesulfonyl)-2-pyridyl]methyl]-4,6-dihydro-1H-pyrrolo[3,4-c]pyrazole-5-carboxamide]
IC50 (A2780 cells; [1]): 2000 nM | IC50 (NAMPT): 2000 nM

Cn1ncc2c1CN(C(=O)NCc1ccc(S(=O)(=O)c3ccccc3)cn1)C2 [Example 179, N-[[5-(benzenesulfonyl)-2-pyridyl]methyl]-1-methyl-4,6-dihydropyrrolo[3,4-c]pyrazole-5-carboxamide]
IC50 (A2780 cells; [2]): 2000 nM | IC50 (NAMPT): 1380 nM

O=C(NCc1ccc(S(=O)(=O)N2CCCCC2)cn1)N1Cc2cn[nH]c2C1 [Example 180, N-[[5-(1-piperidylsulfonyl)-2-pyridyl]methyl]-4,6-dihydro-1H-pyrrolo[3,4-c]pyrazole-5-carboxamide]
IC50 (A2780 cells; [1]): 2000 nM | IC50 (NAMPT): 562 nM

O=C(NCc1ncc(S(=O)(=O)c2cc(F)cc(F)c2)cn1)c1cc2ccncc2o1 [Example 182, N-[[5-(3,5-difluorophenyl)sulfonyl-pyrimidin-2-yl]methyl]furo[2,3-c]pyridine-2-carboxamide]
IC50 (A2780 cells; [1]): 40.5 nM | IC50 (NAMPT): 25.1 nM

O=C(NCc1ccc(S(=O)(=O)c2ccccc2)cn1)c1ccc2nccn2c1 [Example 184, N-[[5-(benzenesulfonyl)-2-pyridyl]methyl]imidazo[1,2-a]pyridine-6-carboxamide]
IC50 (A2780 cells; [2]): 2000 nM | IC50 (NAMPT): 99.2 nM
